In article PMC2860736 (Pharmacological research : the official journal of the …, 2010):
Read-outs that look alike come from different tables or passages of the source. One block for each compound: values may come before it.

How the values were obtained:
ovine COX-2 = test: Pulsed ultrafiltration LC-MS screening for COX-2 ligands; type: binding; conditions: for peak enhancement compared to the control chromatograms: standards screened as mixtures, 0.7 μg/mL each, control denatured COX-2; for binding to COX-2 (result in words): pulsed ultrafiltration LC-MS
human COX-2 = target: T1, human COX-2 (Homo sapiens, UniProt P35354); test: COX functional assay; type: biochemical; conditions: for Inhibition of COX-2 (%) Mean ± std. dev. (N=3): compound 10 μM; for COX-2 selectivity (IC50 COX-1 / IC50 COX-2): ratio of IC50 values; for selectivity for COX-2 (COX-1 IC50 / COX-2 IC50): human COX-2 over COX-1; for inhibition at 10 µM: read-out: Inhibition of COX-2 (%) Mean ± std. dev. (N=3)
T1 sequence (P35354 18-604): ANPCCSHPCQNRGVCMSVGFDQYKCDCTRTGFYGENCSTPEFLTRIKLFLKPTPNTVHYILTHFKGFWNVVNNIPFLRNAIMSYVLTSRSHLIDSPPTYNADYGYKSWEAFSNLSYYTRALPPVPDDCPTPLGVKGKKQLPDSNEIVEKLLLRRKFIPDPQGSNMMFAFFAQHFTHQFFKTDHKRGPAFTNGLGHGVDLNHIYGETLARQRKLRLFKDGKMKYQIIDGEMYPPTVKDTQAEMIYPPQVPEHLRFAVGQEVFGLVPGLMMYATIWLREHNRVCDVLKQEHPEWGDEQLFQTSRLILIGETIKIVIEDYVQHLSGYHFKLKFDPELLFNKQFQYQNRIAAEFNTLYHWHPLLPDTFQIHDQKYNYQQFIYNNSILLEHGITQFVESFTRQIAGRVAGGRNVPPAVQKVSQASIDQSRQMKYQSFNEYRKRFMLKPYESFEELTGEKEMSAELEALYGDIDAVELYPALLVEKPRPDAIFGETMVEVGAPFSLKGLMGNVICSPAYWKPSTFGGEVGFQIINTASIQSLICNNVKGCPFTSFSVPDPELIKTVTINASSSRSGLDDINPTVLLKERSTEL

ovine COX-1 = target: T2, ovine COX-1 (Ovis aries, UniProt P05979); test: COX functional assay; type: biochemical; conditions: for Inhibition of COX-1 (%) Mean ± std. dev. (N=3): compound 10 μM; for inhibition at 10 µM: read-out: Inhibition of COX-1 (%) Mean ± std. dev. (N=3)
T2 sequence (P05979 25-600): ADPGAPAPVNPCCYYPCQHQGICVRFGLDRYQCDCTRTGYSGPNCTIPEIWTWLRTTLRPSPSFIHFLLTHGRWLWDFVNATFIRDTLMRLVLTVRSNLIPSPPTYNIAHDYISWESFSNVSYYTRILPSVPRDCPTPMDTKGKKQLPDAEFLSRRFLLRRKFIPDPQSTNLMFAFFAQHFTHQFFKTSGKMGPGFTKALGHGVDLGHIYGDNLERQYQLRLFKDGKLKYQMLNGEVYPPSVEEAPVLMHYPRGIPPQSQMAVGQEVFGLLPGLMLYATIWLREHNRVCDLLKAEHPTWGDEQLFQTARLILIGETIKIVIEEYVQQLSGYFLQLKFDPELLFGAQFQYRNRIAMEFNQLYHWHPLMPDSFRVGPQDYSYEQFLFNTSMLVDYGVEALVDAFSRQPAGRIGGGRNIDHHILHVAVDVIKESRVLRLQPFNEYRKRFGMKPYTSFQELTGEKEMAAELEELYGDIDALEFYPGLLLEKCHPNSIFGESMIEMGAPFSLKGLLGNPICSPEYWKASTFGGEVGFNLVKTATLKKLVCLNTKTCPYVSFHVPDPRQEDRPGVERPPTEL

COX-1 [1] = conditions: read-out: IC50 COX-1; assay using human platelets; cited from earlier work
COX-1 [2] = conditions: read-out: IC50 COX-1; cited from earlier work
COX-2 = conditions: read-out: IC50 COX-2; cited from earlier work
[3] = read-out: IC50 COX-2, N=3, mean ± std. dev.
[4] = read-out: IC50 COX-1, N=3, mean ± std. dev.
[5] = IC50 COX-2, N=3, mean ± std. dev.
[6] = IC50 COX-1, N=3, mean ± std. dev.

Structure (SMILES): C[C@H]1[C@H](C)CC[C@]2(C)CC[C@]3(C)C(=CC[C@@H]4[C@@]5(C)CC[C@@H](O)[C@](C)(C(=O)O)[C@@H]5CC[C@]43C)[C@H]12 [β-Boswellic acid]
IC50 (human COX-2; [5]): > 100 µM
inhibition at 10 µM (human COX-2): 17 ± 15%
inhibition at 10 µM (ovine COX-1): 42 ± 15%

Structure (SMILES): CC(=O)O[C@@H]1CC[C@@]2(C)[C@@H](CC[C@]3(C)[C@@H]2CC=C2[C@@H]4[C@@H](C)[C@H](C)CC[C@]4(C)CC[C@]23C)[C@@]1(C)C(=O)O [Acetyl-β-boswellic acid]
Inhibition of COX-2 (%) Mean ± std. dev. (N=3) (human COX-2): 25 ± 6%
IC50 (human COX-2; [3]): 73 ± 20 µM
IC50 (human COX-2; read-out: IC50 COX-2, N=3, mean ± std. dev., listed as acetyl-β-boswellic acid): ≥ 73 µM
Inhibition of COX-1 (%) Mean ± std. dev. (N=3) (ovine COX-1): 31 ± 10%

Structure (SMILES): C=C(C)[C@@H]1CC[C@]2(C(=O)O)CC[C@]3(C)[C@H](CC[C@@H]4[C@@]5(C)CC[C@H](O)C(C)(C)[C@@H]5CC[C@]43C)[C@@H]12 [Betulinic acid]
inhibition of COX-2 in the functional assay (result in words) (human COX-2): almost no inhibition of COX-2
IC50 (human COX-2; [5]): > 100 µM
COX-2 selectivity (IC50 COX-1 / IC50 COX-2) (human COX-2): COX-1 specific
inhibition at 10 µM (human COX-2): 33 ± 5%
IC50 (ovine COX-1; [6]): 20 ± 3 µM
inhibition at 10 µM (ovine COX-1): 32 ± 5%

Structure (SMILES): CC1(C)CC[C@]2(C)CC[C@]3(C)C(=CC[C@@H]4[C@@]5(C)CC[C@@H](O)[C@](C)(C(=O)O)[C@@H]5CC[C@]43C)[C@@H]2C1 [α-Boswellic acid]
inhibition of COX-2 in the functional assay (result in words) (human COX-2): did not inhibit
inhibition of COX-1 in the functional assay (result in words) (ovine COX-1): did not inhibit

Structure (SMILES): CC[C@H](CC[C@@H](C)[C@H]1CC[C@H]2[C@@H]3CC=C4C[C@@H](O)CC[C@]4(C)[C@H]3CC[C@]12C)C(C)C [β-Sitosterol]
inhibition of COX-2 in the functional assay (result in words) (human COX-2): did not inhibit
inhibition of COX-1 in the functional assay (result in words) (ovine COX-1): did not inhibit

Structure (SMILES): O=C1C[C@@H](c2ccc(O)cc2)Oc2cc(O)ccc21 [Liquiritigenin]
binding to COX-2 (result in words) (ovine COX-2): did not show sufficient binding to COX-2

Structure (SMILES): C=C(C)[C@@H]1CC[C@]2(C)[C@H](CC=C3[C@@H]4[C@@H](C)[C@H](C)CC[C@]4(C)CC[C@]32C)[C@@]1(C)CCC(=O)O [Roburic acid]
Inhibition of COX-2 (%) Mean ± std. dev. (N=3) (human COX-2): 45 ± 5%
IC50 (human COX-2; [3]): 9 ± 3 µM
Inhibition of COX-1 (%) Mean ± std. dev. (N=3) (ovine COX-1): 33 ± 8%
IC50 (ovine COX-1; [4]): 5 ± 2 µM

Structure (SMILES): C[C@H]1COC2=C1C(=O)C(=O)c1c2ccc2c1CCCC2(C)C [Cryptotanshinone]
binding to COX-2 (result in words) (ovine COX-2): determined to be COX-2 ligands
IC50 (human COX-2; [5]): 22 ± 10 µM
selectivity for COX-2 (COX-1 IC50 / COX-2 IC50) (human COX-2): ≥ 5 fold
COX-2 selectivity (IC50 COX-1 / IC50 COX-2) (human COX-2): COX-2 specific
inhibition at 10 µM (human COX-2): 31 ± 20%
IC50 (ovine COX-1; [6]): > 100 µM
inhibition at 10 µM (ovine COX-1): 0%

Structure (SMILES): Oc1ccc(/C=C/c2cc(O)cc(O)c2)cc1 [Resveratrol, reference compound]
IC50 (COX-1 [2]): 0.83 ± 0.44 µM
IC50 (COX-2): 0.99 ± 0.4 µM
IC50 (ovine COX-1; [6]): 0.86 ± 0.1 µM
inhibition at 10 µM (ovine COX-1): 86 ± 7%

Structure (SMILES): CC(=O)O[C@@H]1CC[C@@]2(C)[C@@H](CC[C@]3(C)[C@@H]2CC=C2[C@@H]4CC(C)(C)CC[C@]4(C)CC[C@]23C)[C@@]1(C)C(=O)O [Acetyl-α-boswellic acid]
Inhibition of COX-2 (%) Mean ± std. dev. (N=3) (human COX-2): 19 ± 5%
IC50 (human COX-2; [3]): > 100 µM
IC50 (human COX-2; read-out: IC50 COX-2, N=3, mean ± std. dev., listed as acetyl-α-boswellic acid): ≥ 73 µM
Inhibition of COX-1 (%) Mean ± std. dev. (N=3) (ovine COX-1): 74 ± 3%

The next lines start with results.

Inhibition of COX-2 (%) Mean ± std. dev. (N=3) (human COX-2): 25 ± 10%
COX-2 selectivity (IC50 COX-1 / IC50 COX-2) (human COX-2): 0.58
COX-2 selectivity (IC50 COX-1 / IC50 COX-2) (human COX-2; listed as phenethyl-trans-ferulate): inhibited COX-1 and COX-2 equally
IC50 (human COX-2; [3]): 31 ± 15 µM
Inhibition of COX-1 (%) Mean ± std. dev. (N=3) (ovine COX-1): 44 ± 3%
IC50 (ovine COX-1; [4]): 18 ± 5 µM
Structure (SMILES): COc1cc(/C=C/C(=O)OCCc2ccccc2)ccc1O [Phenethyl trans-ferulate]
peak enhancement compared to the control chromatograms (ovine COX-2): ≥ 40%

inhibition of COX-2 in the functional assay (result in words) (human COX-2): did not inhibit
inhibition of COX-1 in the functional assay (result in words) (ovine COX-1): did not inhibit
Structure (SMILES): CC(C)=CCOc1c2ccoc2cc2oc(=O)ccc12 [Isoimperatorin]

binding to COX-2 (result in words) (ovine COX-2): determined to be COX-2 ligands
Inhibition of COX-2 (%) Mean ± std. dev. (N=3) (human COX-2): 52 ± 20%
selectivity for COX-2 (COX-1 IC50 / COX-2 IC50) (human COX-2): ≥ 5 fold
COX-2 selectivity (IC50 COX-1 / IC50 COX-2) (human COX-2): 5.00
IC50 (human COX-2; [3]): 5 ± 5 µM
Inhibition of COX-1 (%) Mean ± std. dev. (N=3) (ovine COX-1): 0 ± 5%
IC50 (ovine COX-1; [4]): 25 ± 10 µM
Structure (SMILES): CCC/C=C1\OC(=O)C2=C1CC[C@H]1[C@H]3C=C4C(=O)O/C(=C\CCC)[C@@]4(CC3)[C@@H]21 [Senkyunolide O]

inhibition of COX-2 in the functional assay (result in words) (human COX-2): did not inhibit
inhibition of COX-1 in the functional assay (result in words) (ovine COX-1): did not inhibit
Structure (SMILES): CC(C)=CC(O)C/C(C)=C/COc1c2ccoc2cc2oc(=O)ccc12 (centres unmarked) [Notopterol]

Inhibition of COX-2 (%) Mean ± std. dev. (N=3) (human COX-2): 23 ± 15%
IC50 (human COX-2; [3]): 85 ± 20 µM
IC50 (human COX-2; read-out: IC50 COX-2, N=3, mean ± std. dev., listed as acetyl-11-keto-β-boswellic acid): ≥ 73 µM
Inhibition of COX-1 (%) Mean ± std. dev. (N=3) (ovine COX-1): 39 ± 5%
Structure (SMILES): CC(=O)O[C@@H]1CC[C@@]2(C)[C@@H](CC[C@]3(C)[C@@H]2C(=O)C=C2[C@@H]4[C@@H](C)[C@H](C)CC[C@]4(C)CC[C@]23C)[C@@]1(C)C(=O)O [Acetyl-11-keto-β-boswellic acid]
IC50 (COX-1 [1]): 6 µM

inhibition of COX-2 in the functional assay (result in words) (human COX-2): did not inhibit
inhibition of COX-1 in the functional assay (result in words) (ovine COX-1): did not inhibit
Structure (SMILES): COc1ccc(-c2cc(=O)c3c(O)cc(O)cc3o2)cc1 [Linarigenin]

inhibition at 10 µM (human COX-2): 23 ± 3%
Structure (SMILES): O=C(/C=C/c1ccc(O)cc1)c1ccc(O)cc1O [Isoliquiritigenin]
peak enhancement compared to the control chromatograms (ovine COX-2): ≥ 40%

inhibition of COX-2 in the functional assay (result in words) (human COX-2): did not inhibit
inhibition of COX-1 in the functional assay (result in words) (ovine COX-1): did not inhibit
Structure (SMILES): CC1(C)[C@@H](O)CC[C@]2(C)[C@H]3C(=O)C=C4[C@@H]5C[C@@](C)(C(=O)O)CC[C@]5(C)CC[C@@]4(C)[C@]3(C)CC[C@@H]12 [Glycyrrhetic acid]

inhibition of COX-2 in the functional assay (result in words) (human COX-2): did not inhibit
inhibition of COX-1 in the functional assay (result in words) (ovine COX-1): did not inhibit
Structure (SMILES): CC(C)=CCC/C(C)=C/Cc1cc2ccc(=O)oc2cc1O [Ostruthin]
